The source of these data is patent publication US20190292179A1 (BRISTOL-MYERS SQUIBB COMPANY, priority 2016, published 2019).

Structures are written as SMILES. Structures can show the parent of a compound that is named as a salt.

One assay deals with HIS-TGFβR2 WT (Homo sapiens, UniProt P37173). The assay can be described thus: HTRF probe-displacement assay with HIS-TGFβR2 WT. Type of assay: binding. As to conditions: 1 nM HIS-TGFβR2 WT, labeled probe at Kd, 1 hour at room temperature. The method, then:
(§1) The reaction is incubated for 1 hour at room temperature and the HTRF signal was measured on an Envision plate reader (Ex: 340 nm; Em: 520 nm/495 nm). Inhibition data were calculated by comparison to no enzyme control reactions for 100% inhibition and vehicle-only reactions for 0% inhibition. The final concentration of reagents in the assay are 1 nM HIS-TGFβR1 T204D or HIS-TGFβR2 WT, 0.2 nM anti-HIS detection antibody, labeled small molecule probe (at Kd) and 0.5% DMSO. Dose response curves were generated to determine the concentration required inhibiting 50% of kinase activity (IC50). Compounds were dissolved at 10 mM in dimethylsulfoxide (DMSO) and evaluated at eleven concentrations. IC50 values were derived by non-linear regression analysis.

The target in the next assay is T1, HIS-TGFβR1 T204D (Homo sapiens, UniProt P36897, T204D).
T1 sequence (P36897 34-503 T204D): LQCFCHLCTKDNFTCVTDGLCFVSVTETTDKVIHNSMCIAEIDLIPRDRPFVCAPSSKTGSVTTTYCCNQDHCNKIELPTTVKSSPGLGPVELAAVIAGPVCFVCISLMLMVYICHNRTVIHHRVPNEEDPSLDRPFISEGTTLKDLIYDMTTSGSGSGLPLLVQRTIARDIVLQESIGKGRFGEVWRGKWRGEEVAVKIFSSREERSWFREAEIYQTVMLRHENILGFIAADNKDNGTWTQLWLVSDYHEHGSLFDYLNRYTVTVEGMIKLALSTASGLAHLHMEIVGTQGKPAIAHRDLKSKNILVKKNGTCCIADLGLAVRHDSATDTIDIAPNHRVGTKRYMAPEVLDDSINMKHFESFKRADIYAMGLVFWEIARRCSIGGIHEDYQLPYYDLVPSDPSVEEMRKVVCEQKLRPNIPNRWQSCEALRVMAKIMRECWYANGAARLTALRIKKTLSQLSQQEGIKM
The assay can be described thus: HTRF probe-displacement assay with HIS-TGFβR1 T204D. The assay is classed as binding. Conditions: 1 nM HIS-TGFβR1 T204D, labeled probe at Kd, 1 hour at room temperature. The method, then: as §1

Chain of HIS-TGFβR2 WT (P37173 23-567): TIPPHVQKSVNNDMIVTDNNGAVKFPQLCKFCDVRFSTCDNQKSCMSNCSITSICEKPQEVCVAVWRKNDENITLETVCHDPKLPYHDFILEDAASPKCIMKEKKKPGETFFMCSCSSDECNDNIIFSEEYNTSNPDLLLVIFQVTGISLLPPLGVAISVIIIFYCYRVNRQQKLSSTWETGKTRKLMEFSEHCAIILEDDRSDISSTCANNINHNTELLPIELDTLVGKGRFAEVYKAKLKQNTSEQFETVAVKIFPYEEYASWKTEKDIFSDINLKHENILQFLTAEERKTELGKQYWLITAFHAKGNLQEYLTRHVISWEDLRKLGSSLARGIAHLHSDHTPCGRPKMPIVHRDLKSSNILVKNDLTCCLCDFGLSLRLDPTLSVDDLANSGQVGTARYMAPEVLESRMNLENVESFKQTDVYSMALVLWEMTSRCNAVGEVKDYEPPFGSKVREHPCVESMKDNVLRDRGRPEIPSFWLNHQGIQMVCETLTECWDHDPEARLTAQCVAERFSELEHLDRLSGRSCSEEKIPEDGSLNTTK

As to `Cn1cc(-c2ccc3ncc(C(N)=O)n3c2)c(-c2cccc(C(F)(F)F)n2)n1` [Example 10, 6-(1-methyl-3-(6-(trifluoromethyl)pyridin-2-yl)-1H-pyrazol-4-yl)imidazo[1,2-a]pyridine-3-carboxamide], the 50% inhibitory concentration (IC50) at HIS-TGFβR2 WT came out at 8.87 µM; at HIS-TGFβR1 T204D it was 0.001 µM.
`Cc1nc(-c2nn(C)cc2-c2ccc3ncc(C#N)n3c2)ccc1F` [Example 11, 6-(3-(5-fluoro-6-methylpyridin-2-yl)-1-methyl-1H-pyrazol-4-yl)imidazo[1,2-a]pyridine-3-carbonitrile]: the IC50 on HIS-TGFβR2 WT amounted to 5.42 µM; at HIS-TGFβR1 T204D, 0.001 µM.
For `N#Cc1cnc2ccc(-c3c[nH]nc3-c3ccc(F)cc3)nn12` [Example 13, 6-(3-(4-fluorophenyl)-1H-pyrazol-4-yl)imidazo [1,2-b]pyridazine-3-carbonitrile], in that order: 0.101 µM and 0.007 µM.
For the compound `NC(=O)c1cnc2ccc(-c3c[nH]nc3-c3ccc(F)cc3)nn12` [Example 14, 6-(3-(4-fluorophenyl)-1H-pyrazol-4-yl)imidazo[1,2-b]pyridazine-3-carboxamide], the IC50 on HIS-TGFβR2 WT worked out at 0.885 µM; on HIS-TGFβR1 T204D, 0.004 µM.
`CC(C)(C)Nc1cnc2ccc(-c3c[nH]nc3-c3ccc(F)cc3)cn12` [Example 15, N-(tert-butyl)-6-(3-(4-fluorophenyl)-1H-pyrazol-4-yl)imidazo[1,2-a]pyridin-3-amine]: the IC50 came to 12.7 µM at HIS-TGFβR2 WT and 0.502 µM at HIS-TGFβR1 T204D.
For `Cc1cccc(-c2n[nH]cc2-c2ccc3ncc(C#N)n3n2)n1` [Example 20, 6-(3-(6-methylpyridin-2-yl)-1H-pyrazol-4-yl)imidazo[1,2-b]pyridazine-3-carbonitrile], in that order: 1.45 µM and 0.001 µM.
For `Cc1cccc(-c2c(-c3ccc4ncc(C#N)n4c3)cnn2C2CC2)n1` [Example 22, 6-(1-cyclopropyl-5-(6-methylpyridin-2-yl)-1H-pyrazol-4-yl)imidazo[1,2-a]pyridine-3-carbonitrile], in that order: 7.55 µM and 0.035 µM.
The matching figures for `Cc1cccc(-c2nn(C)cc2-c2ccc3ncc(C#N)n3c2)n1` [Example 23, 6-(1-methyl-3-(6-methylpyridin-2-yl)-1H-pyrazol-4-yl)imidazo[1,2-a]pyridine-3-carbonitrile]: 2.48 µM and 0.001 µM.
Take `Cc1cccc(-c2nn(C)cc2-c2ccc3ncc(C(N)=O)n3c2)n1` [Example 24, 6-(1-methyl-3-(6-methylpyridin-2-yl)-1H-pyrazol-4-yl)imidazo[1,2-a]pyridine-3-carboxamide]: the IC50 on HIS-TGFβR2 WT came to 0.627 µM; on HIS-TGFβR1 T204D, 0.001 µM.
With `Cc1cccc(-c2nn(C)cc2-c2ccc3ncc(C#N)n3n2)n1` [Example 25, 6-(1-methyl-3-(6-methylpyridin-2-yl)-1H-pyrazol-4-yl)imidazo[1,2-b]pyridazine-3-carbonitrile], the 50% inhibitory concentration (IC50) on HIS-TGFβR2 WT is 9.74 µM; at HIS-TGFβR1 T204D, 0.003 µM.
For `Cc1cccc(-c2nn(CC(F)F)cc2-c2ccc3ncc(C#N)n3c2)n1` [Example 27, 6-(1-(2,2-difluoroethyl)-3-(6-methylpyridin-2-yl)-1H-pyrazol-4-yl)imidazo[1,2-a]pyridine-3-carbonitrile], in that order: 11.4 µM and 0.003 µM.
The matching figures for `Cc1cccc(-c2nn(CC(F)F)cc2-c2ccc3ncc(C(N)=O)n3c2)n1` [Example 28, 6-(1-(2,2-difluoroethyl)-3-(6-methylpyridin-2-yl)-1H-pyrazol-4-yl)imidazo[1,2-a]pyridine-3-carboxamide]: 0.075 µM and 0.001 µM.
For `Fc1ccc(-c2n[nH]cc2-c2ccn3ncnc3c2)cc1` [Example 29, 7-(3-(4-fluorophenyl)-1H-pyrazol-4-yl)-[1,2,4]triazolo[1,5-a]pyridine], in that order: 1.1 µM and 0.003 µM.
Regarding `Fc1ccc(-c2n[nH]cc2-c2cc(F)c3nccn3c2)cc1` [Example 30, 8-fluoro-6-(3-(4-fluorophenyl)-1H-pyrazol-4-yl)imidazo[1,2-a]pyridine], the half-maximal inhibitory concentration (IC50) on HIS-TGFβR2 WT worked out at 10.3 µM; on HIS-TGFβR1 T204D, 0.591 µM.
The matching figures for `Fc1ccc(-c2n[nH]cc2-c2ccc3nncn3c2)cc1` [Example 31, 6-(3-(4-fluorophenyl)-1H-pyrazol-4-yl)-[1,2,4]triazolo[4,3-a]pyridine, TFA]: 9.17 µM and 0.112 µM.
`CC(=O)Nc1cc(-c2c[nH]nc2-c2ccc(F)cc2)cn2ccnc12` [Example 33, N-(6-(3-(4-fluorophenyl)-1H-pyrazol-4-yl)imidazo[1,2-a]pyridin-8-yl)acetamide]: the IC50 turned out to be 7.06 µM at HIS-TGFβR2 WT and 0.811 µM at HIS-TGFβR1 T204D.
For `Fc1ccc(-c2n[nH]cc2-c2ccc3nccn3c2)cc1` [Example 34, 6-(3-(4-fluorophenyl)-1H-pyrazol-4-yl)imidazo[1,2-a]pyridine], in that order: 5.02 µM and 0.014 µM.
The matching figures for `N#Cc1cnc2ccc(-c3c[nH]nc3-c3ccc(F)cc3)cn12` [Example 35, 6-(3-(4-fluorophenyl)-1H-pyrazol-4-yl)imidazo[1,2-a]pyridine-3-carbonitrile]: 0.221 µM and 0.011 µM.
On to `NC(=O)c1cnc2ccc(-c3c[nH]nc3-c3ccc(F)cc3)cn12` [Example 36, 6-(3-(4-fluorophenyl)-1H-pyrazol-4-yl)imidazo[1,2-a]pyridine-3-carboxamide], for which the IC50 was determined as 0.696 µM on HIS-TGFβR2 WT and 0.002 µM on HIS-TGFβR1 T204D.
For the compound `Cn1cc(-c2ccc3ncc(C#N)n3c2)c(-c2ccc(F)cc2)n1` [Example 37, 6-(3-(4-fluorophenyl)-1-methyl-1H-pyrazol-4-yl)imidazo[1,2-a]pyridine-3-carbonitrile], the IC50 on HIS-TGFβR2 WT came out at 0.165 µM; at HIS-TGFβR1 T204D it was 0.042 µM.
With `Cn1cc(-c2ccc3ncc(C(N)=O)n3c2)c(-c2ccc(F)cc2)n1` [Example 38, 6-(3-(4-fluorophenyl)-1-methyl-1H-pyrazol-4-yl)imidazo[1,2-a]pyridine-3-carboxamide], the IC50 is 1.54 µM at HIS-TGFβR2 WT and 0.002 µM at HIS-TGFβR1 T204D.
The matching figures for `Fc1ccc(-c2n[nH]cc2-c2ccc3nccn3n2)cc1Cl` [Example 39, 6-(3-(3-chloro-4-fluorophenyl)-1H-pyrazol-4-yl)imidazo[1,2-b]pyridazine, TFA]: 1.65 µM and 0.004 µM.
For `Fc1ccc(-c2n[nH]cc2-c2ccc3nccn3c2)cc1Cl` [Example 40, 6-(3-(3-chloro-4-fluorophenyl)-1H-pyrazol-4-yl)imidazo[1,2-a]pyridine, TFA], in that order: 4.97 µM and 0.003 µM.
Regarding `N#Cc1cnc2ccc(-c3c[nH]nc3-c3ccc(F)c(Cl)c3)cn12` [Example 41, 6-(3-(3-chloro-4-fluorophenyl)-1H-pyrazol-4-yl)imidazo[1,2-a]pyridine-3-carbonitrile], the IC50 at HIS-TGFβR2 WT worked out at 0.098 µM; on HIS-TGFβR1 T204D it was 0.001 µM.
As for `NC(=O)c1cnc2ccc(-c3c[nH]nc3-c3ccc(F)c(Cl)c3)cn12` [Example 42, 6-(3-(3-chloro-4-fluorophenyl)-1H-pyrazol-4-yl)imidazo[1,2-a]pyridine-3-carboxamide, TFA], the IC50 at HIS-TGFβR2 WT was found to be 0.33 µM; at HIS-TGFβR1 T204D, 0.001 µM.
The matching figures for `N#CCn1cc(-c2ccc3ncc(C#N)n3c2)c(-c2ccc(F)c(Cl)c2)n1` [Example 43, 6-(3-(3-chloro-4-fluorophenyl)-1-(cyanomethyl)-1H-pyrazol-4-yl)imidazo[1,2-a]pyridine-3-carbonitrile]: 0.463 µM and 0.001 µM.
`N#Cc1cnc2ccc(-c3cn(CCO)nc3-c3ccc(F)c(Cl)c3)cn12` [Example 44, 6-(3-(3-chloro-4-fluorophenyl)-1-(2-hydroxyethyl)-1H-pyrazol-4-yl)imidazo[1,2-a]pyridine-3-carbonitrile]: the results for the IC50 on HIS-TGFβR2 WT and at HIS-TGFβR1 T204D were 0.369 µM and 0.002 µM, respectively.
The matching figures for `Clc1ccc(-c2n[nH]cc2-c2ccc3nccn3c2)cc1` [Example 45, 6-(3-(4-chlorophenyl)-1H-pyrazol-4-yl)imidazo[1,2-a]pyridine]: 4.23 µM and 0.112 µM.
For `N#Cc1cnc2ccc(-c3c[nH]nc3-c3ccc(Cl)cc3)cn12` [Example 46, 6-(3-(4-chlorophenyl)-1H-pyrazol-4-yl)imidazo[1,2-a]pyridine-3-carbonitrile], in that order: 0.214 µM and 0.092 µM.
The matching figures for `NC(=O)c1cnc2ccc(-c3c[nH]nc3-c3ccc(Cl)cc3)cn12` [Example 47, 6-(3-(4-chlorophenyl)-1H-pyrazol-4-yl)imidazo[1,2-a]pyridine-3-carboxamide]: 0.709 µM and 0.004 µM.
